Structures can show the parent of a compound that is named as a salt. Where two headings read alike, the source gives them in different places.
Key:
human CYP2C9 [1] = biological target: T1, human CYP2C9 (Homo sapiens, UniProt P11712)
[2] = biological target: Photinus pyralis (firefly) luciferase (Photinus pyralis, UniProt P08659); experiment: biochemical; assay type: biochemical
human CYP1A2 [3] = biological target: T2, human CYP1A2 (Homo sapiens, UniProt P05177)
T2 sequence (P05177 1-516): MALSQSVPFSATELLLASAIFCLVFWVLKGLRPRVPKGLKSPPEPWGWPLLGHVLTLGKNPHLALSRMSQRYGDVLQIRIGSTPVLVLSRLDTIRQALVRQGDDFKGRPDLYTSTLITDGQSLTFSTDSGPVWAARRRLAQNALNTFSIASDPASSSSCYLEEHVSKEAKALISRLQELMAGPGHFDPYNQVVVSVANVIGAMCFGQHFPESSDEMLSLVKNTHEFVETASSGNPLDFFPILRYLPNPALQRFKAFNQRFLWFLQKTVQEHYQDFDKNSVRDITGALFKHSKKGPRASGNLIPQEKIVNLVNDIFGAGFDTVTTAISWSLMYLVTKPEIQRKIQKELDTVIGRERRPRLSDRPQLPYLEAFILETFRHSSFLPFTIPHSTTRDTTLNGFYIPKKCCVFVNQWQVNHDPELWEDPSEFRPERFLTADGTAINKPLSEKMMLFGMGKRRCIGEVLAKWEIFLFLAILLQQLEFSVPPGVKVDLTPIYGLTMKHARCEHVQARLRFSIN

human CYP2C19 [4] = biological target: T3, human CYP2C19 (Homo sapiens, UniProt P33261)
T3 sequence (P33261 whole entry): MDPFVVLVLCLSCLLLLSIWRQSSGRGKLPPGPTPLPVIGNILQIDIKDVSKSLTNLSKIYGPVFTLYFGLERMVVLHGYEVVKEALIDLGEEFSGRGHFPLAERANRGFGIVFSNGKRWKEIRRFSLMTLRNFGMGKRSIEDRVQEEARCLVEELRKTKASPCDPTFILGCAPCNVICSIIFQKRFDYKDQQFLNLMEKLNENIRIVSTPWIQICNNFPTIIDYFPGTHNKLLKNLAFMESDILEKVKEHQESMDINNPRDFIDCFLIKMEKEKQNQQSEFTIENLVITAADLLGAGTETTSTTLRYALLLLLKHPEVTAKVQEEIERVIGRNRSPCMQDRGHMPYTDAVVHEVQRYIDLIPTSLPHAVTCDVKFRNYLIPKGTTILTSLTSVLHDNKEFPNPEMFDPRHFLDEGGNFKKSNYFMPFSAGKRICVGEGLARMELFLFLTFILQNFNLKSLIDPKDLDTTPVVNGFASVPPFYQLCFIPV

CYP3A4 = CYP3A4 (Homo sapiens, UniProt P08684)
CYP3A4, sequence (P08684 whole entry): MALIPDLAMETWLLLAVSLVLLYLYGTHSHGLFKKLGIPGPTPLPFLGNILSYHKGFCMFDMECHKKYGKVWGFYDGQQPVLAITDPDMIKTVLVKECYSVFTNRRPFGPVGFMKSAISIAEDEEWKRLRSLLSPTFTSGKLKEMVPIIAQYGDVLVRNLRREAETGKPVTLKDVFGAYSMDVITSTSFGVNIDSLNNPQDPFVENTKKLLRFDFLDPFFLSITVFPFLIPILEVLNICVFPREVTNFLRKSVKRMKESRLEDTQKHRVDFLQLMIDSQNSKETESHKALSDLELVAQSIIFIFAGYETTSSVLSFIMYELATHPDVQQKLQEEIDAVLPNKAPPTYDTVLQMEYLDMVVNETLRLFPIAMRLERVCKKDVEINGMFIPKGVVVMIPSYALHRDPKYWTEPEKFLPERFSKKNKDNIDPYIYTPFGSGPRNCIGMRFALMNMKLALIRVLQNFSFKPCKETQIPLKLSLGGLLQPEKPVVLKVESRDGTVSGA

human CYP2D6 = human CYP2D6 (Homo sapiens, UniProt P10635); experiment: biochemical
human CYP2D6, sequence (P10635 whole entry): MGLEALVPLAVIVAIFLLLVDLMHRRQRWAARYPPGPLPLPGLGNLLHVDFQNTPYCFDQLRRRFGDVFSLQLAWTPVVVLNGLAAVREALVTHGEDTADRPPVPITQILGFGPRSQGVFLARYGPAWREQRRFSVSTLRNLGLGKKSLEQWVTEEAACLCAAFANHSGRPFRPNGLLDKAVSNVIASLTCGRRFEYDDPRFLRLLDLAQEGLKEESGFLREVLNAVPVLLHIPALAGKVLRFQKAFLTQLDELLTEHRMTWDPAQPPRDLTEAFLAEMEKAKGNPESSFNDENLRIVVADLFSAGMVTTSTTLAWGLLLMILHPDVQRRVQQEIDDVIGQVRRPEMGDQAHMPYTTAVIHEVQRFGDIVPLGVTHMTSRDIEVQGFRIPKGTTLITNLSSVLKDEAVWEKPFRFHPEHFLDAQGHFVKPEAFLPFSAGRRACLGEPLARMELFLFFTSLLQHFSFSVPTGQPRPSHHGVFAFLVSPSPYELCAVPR

human CYP2C9 [5] = biological target: T1, human CYP2C9; experiment: biochemical
human CYP2C19 [6] = biological target: T3, human CYP2C19; experiment: biochemical
human CYP1A2 [7] = biological target: T2, human CYP1A2; experiment: biochemical
[8] = CYP2C9 IC50 (half-maximal inhibitory concentration)
[9] = CYP2C19 IC50 (half-maximal inhibitory concentration)
[10] = CYP2D6 IC50 (half-maximal inhibitory concentration)
[11] = CYP1A2 IC50 (half-maximal inhibitory concentration)

Photinus pyralis (firefly) luciferase, sequence (P08659 whole entry): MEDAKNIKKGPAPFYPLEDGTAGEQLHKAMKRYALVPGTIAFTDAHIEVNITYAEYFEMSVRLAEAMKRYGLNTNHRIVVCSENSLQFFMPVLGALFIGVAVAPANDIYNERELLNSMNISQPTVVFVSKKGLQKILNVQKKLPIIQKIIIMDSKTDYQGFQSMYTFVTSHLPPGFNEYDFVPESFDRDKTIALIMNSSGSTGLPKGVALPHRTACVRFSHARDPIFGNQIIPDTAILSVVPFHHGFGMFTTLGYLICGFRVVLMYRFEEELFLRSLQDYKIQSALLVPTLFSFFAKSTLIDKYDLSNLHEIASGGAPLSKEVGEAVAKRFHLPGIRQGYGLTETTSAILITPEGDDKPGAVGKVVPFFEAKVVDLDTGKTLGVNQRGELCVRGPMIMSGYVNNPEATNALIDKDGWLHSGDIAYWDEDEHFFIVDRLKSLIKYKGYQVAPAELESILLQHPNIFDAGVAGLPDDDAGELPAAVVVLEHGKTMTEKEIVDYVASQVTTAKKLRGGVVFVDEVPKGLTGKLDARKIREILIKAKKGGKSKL
T1 sequence (P11712 whole entry): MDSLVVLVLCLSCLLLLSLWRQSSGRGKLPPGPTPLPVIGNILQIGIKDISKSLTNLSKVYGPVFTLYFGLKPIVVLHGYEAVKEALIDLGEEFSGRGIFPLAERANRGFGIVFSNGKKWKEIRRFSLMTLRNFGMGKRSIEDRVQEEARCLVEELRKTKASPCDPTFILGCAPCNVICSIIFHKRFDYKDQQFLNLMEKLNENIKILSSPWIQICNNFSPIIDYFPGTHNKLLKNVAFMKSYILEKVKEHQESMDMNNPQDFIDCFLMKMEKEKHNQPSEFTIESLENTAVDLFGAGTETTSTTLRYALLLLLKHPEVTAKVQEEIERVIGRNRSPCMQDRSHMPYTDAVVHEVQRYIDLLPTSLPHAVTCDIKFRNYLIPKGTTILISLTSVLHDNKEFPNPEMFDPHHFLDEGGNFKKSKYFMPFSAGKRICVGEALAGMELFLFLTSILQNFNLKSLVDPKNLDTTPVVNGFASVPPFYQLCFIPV

SMILES | IC50 (human CYP2D6) [µM] | IC50 (human CYP2C19 [6]; CYP2C19 IC50) [µM] | IC50 (human CYP2D6; CYP2D6 IC50) [µM] | IC50 (human CYP1A2 [7]; CYP1A2 IC50) [µM] | IC50 (human CYP2C9 [5]) [µM] | Luciferase IC50 [2] | further results
CN1[C@@H]2CC[C@H]1C[C@@H](NC(=O)n1c(=O)[nH]c3ccccc31)C2 [Itasetron] | 0.87 ± 0.1 | – | – | – | – | – | CYP2C9 IC50 (half-maximal inhibitory concentration) (human CYP2C9 [1]): Inactive; Luciferase IC50 (half-maximal inhibitory concentration) [2]: Inactive; CYP1A2 IC50 (half-maximal inhibitory concentration) (human CYP1A2 [3]): Inactive; CYP2C19 IC50 (half-maximal inhibitory concentration) (human CYP2C19 [4]): Inactive; CYP3A4 IC50 (half-maximal inhibitory concentration) (CYP3A4): Inactive
CCOC(=O)CC(SP(=S)(OC)OC)C(=O)OCC (centres unmarked) [Malathion] | – | 0.54 | 58.1 | 2.12 | – | – | IC50 [2]: 37 µM; IC50 (human CYP2C9 [5]; CYP2C9 IC50): 1.78 µM
COC(=O)C1=C(C)NC(C)=C(C(=O)OCCN2CCN(C(c3ccccc3)c3ccccc3)CC2)C1c1cccc([N+](=O)[O-])c1 (centres unmarked) [Manidipine] | 6.17 ± 5.32 | – | – | – | 0.52 ± 0.3 | – | Luciferase IC50 (half-maximal inhibitory concentration) [2]: Inactive; CYP1A2 IC50 (half-maximal inhibitory concentration) (human CYP1A2 [3]): Inactive; IC50 (human CYP2C19 [6]): 2.39 ± 2.01 µM; CYP3A4 IC50 (half-maximal inhibitory concentration) (CYP3A4): Inactive
Cc1cc(O)c2ccccc2c1O [Menadiol] | – | 13.4 | 19.3 | 0.8 | – | Inactive | IC50 (human CYP2C9 [5]; CYP2C9 IC50): 12.2 µM
COc1nn(CSP(=S)(OC)OC)c(=O)s1 [Methidathion] | 35.7 | 0.8 | – | 6.58 | 6.58 | – | IC50 [2]: 44 µM
CCN(CC)CCOC(=O)C(Cc1cccc2ccccc12)CC1CCCO1 (centres unmarked) [Nafronyl oxalate] | – | 7.76 | 2.98 | 18.2 | – | Inactive | CYP2C9 IC50 (human CYP2C9 [1]): Inactive
CO[C@]12C[C@@H](COC(=O)c3cncc(Br)c3)CN(C)[C@@H]1Cc1cn(C)c3cccc2c13 [Nicergoline] | – | 11.8 | 0.07 | 22 | – | Inactive | CYP2C9 IC50 (human CYP2C9 [1]): Inactive
O=C(NCCc1c[nH]c2ccccc12)c1cccnc1 [Nicotredole] | – | – | – | – | – | – | IC50 [2]: 35.1 µM; IC50 (human CYP2C9 [5]; [8]): 15.1 µM; IC50 (human CYP2C19 [6]; [9]): 8.39 µM; IC50 (human CYP2D6; [10]): 31 µM; IC50 (human CYP1A2 [7]; [11]): 14.6 µM
Nc1c(Cl)c(Cl)c(Cl)c(Cl)c1Cl [Pentachloroaniline] | 75.3 | 44 | – | 0.85 | 51.5 | Inactive | –
CCCN1C[C@H](CSC)C[C@@H]2c3cccc4[nH]cc(c34)C[C@H]21 [Pergolide methanesulfonate] | – | 8.43 | 0.15 | 6.54 | – | Inactive | IC50 (human CYP2C9 [5]; CYP2C9 IC50): 6.26 µM
c1ccc2c(c1)Nc1ccccc1S2 [Phenothiazine] | – | – | – | – | – | – | IC50 [2]: 58.1 µM; IC50 (human CYP2C9 [5]; [8]): 40.4 µM; IC50 (human CYP2C19 [6]; [9]): 4.3 µM; IC50 (human CYP2D6; [10]): 30.8 µM; IC50 (human CYP1A2 [7]; [11]): 0.97 µM
CCOP(=S)(OCC)O/N=C(\C#N)c1ccccc1 [Phoxim] | 22.5 | 0.28 | – | 0.99 | 2.04 | Inactive | –
c1cc2ccc3cccc4ccc(c1)c2c34 [Pyrene] | – | 24.3 | 47.1 | 0.64 | – | Inactive | IC50 (human CYP2C9 [5]; CYP2C9 IC50): 60.5 µM
CCOC(=O)COc1ccc2c(c1)C[C@@H](NC[C@H](O)c1cccc(Cl)c1)CC2 [SR58611] | 0.66 ± 0.18 | – | – | – | 31 ± 4.26 | – | Luciferase IC50 (half-maximal inhibitory concentration) [2]: Inactive; CYP1A2 IC50 (half-maximal inhibitory concentration) (human CYP1A2 [3]): Inactive; IC50 (human CYP2C19 [6]): 35.2 ± 8.79 µM; CYP3A4 IC50 (half-maximal inhibitory concentration) (CYP3A4): Inactive
CCOC(=O)c1c(N)sc2c1CCN(Cc1ccccc1)C2 [Tinoridine] | 0.02 ± 0.01 | – | – | – | 6.91 ± 5.97 | Inactive | IC50 (human CYP2C19 [6]): 0.71 ± 0.38 µM; IC50 (human CYP1A2 [7]): 16.1 ± 1.09 µM
Cl[C@H]1[C@H](Cl)[C@@H](Cl)[C@H](Cl)[C@@H](Cl)[C@H]1Cl [delta-Hexachlorocyclohexane] | – | – | – | – | – | – | Luciferase IC50 (half-maximal inhibitory concentration) [2]: Inactive; AC50 (human CYP2C9 [5]; CYP2C9 AC50 (half-maximal activity concentration)): 25.6 µM; IC50 (human CYP2C9 [5]; [8]): 25.6 µM; AC50 (human CYP2C19 [6]; CYP2C19 AC50 (half-maximal activity concentration)): 2.27 µM; IC50 (human CYP2C19 [6]; [9]): 2.27 µM; AC50 (human CYP2D6; CYP2D6 AC50 (half-maximal activity concentration)): 48.8 µM; IC50 (human CYP2D6; [10]): 48.8 µM; AC50 (human CYP1A2 [7]; CYP1A2 AC50 (half-maximal activity concentration)): 35.7 µM; IC50 (human CYP1A2 [7]; [11]): 35.7 µM
CN(C/C=C/C#CC(C)(C)C)Cc1cccc2ccccc12 [terbinafine, reference compound] | 0.4 | – | – | – | 15.5 | Inactive | IC50 (human CYP2C19 [6]): 31.9 µM; IC50 (human CYP1A2 [7]): 16.8 µM

Reference: publication PMC12155096 (International Journal of Molecular Sciences, 2025)
